Measurements from US20150352075A1, “Treatment of Alzheimer's and Cognitive Impairment With Andrographolides” (INNOBIOSCIENCE, LLC, priority 2013, published 2015).
Where two headings read alike, the source gives them in different places.

Legend:
[1] = system: APPswe/PS-1 double transgenic mice; test: Classical Morris Water Maze test; type: in vivo; conditions: 12 month-old APPswe/PS-1 mice, 2.0 mg/kg IP three times per week, four weeks, vs Tg control
[2] = system: Wnt target genes in cultured hippocampal neurons; test: PCR array of Wnt target genes in hippocampal neurons; type: cell-based, rat
Protocol: Primary culture of rat hippocampal neurons. […] PCR-ARRAY. RNA from hippocampal neurons was extracted using Trizol. Quantification and purity of RNA preparations were checked by absorbance using Nanodrop ND-2000. Only preparations with a 260/280 nm ratio ≧1.8, a 260/230 nm ratio ≧1.7 and no sign of RNA degradations, verified by agarose gel electrophoresis with Gel Red™ were used. Genomic DNA was degraded. Using RT2First-Strand cDNA Synthesis kit (SuperArray), 1 ng total RNA was reverse transcribed and then real-time PCR was performed by adding cDNA directly to PCR Master Mix, containing SYBR Green and ROX. The mixtures were then aliquoted into a 96-well PCR array plates, which profiles the expression of 84 Wnt target genes from rat. The PCR was run on ABI StepOnePlus, with 1 cycle of 10 min at 95° C. followed by 40 cycles of 15s at 95° C. and 1 min at 60° C. […] Treatment of neuronal cultures. Primary hippocampal cultures of neurons 14 DIV were washed twice in neurobasal medium and maintained for 1 hour. Next ANDRO (10 μM) and 6-BIO (10 μM) were added to different time periods.

[3] = biological target: T1, Immunoprecipitated GSK-3β from hippocampus of wild-type mice (Mus musculus, UniProt Q9WV60); test: Luminometric GSK-3β activity assay; type: biochemical
T1 construct: the hippocampus of two month-old wild-type mice were lysed in immunoprecipitation buffer; from tissue; host or cells: hippocampus of two-month-old wild-type mice (immunoprecipitated with anti-GSK-3β antibody, Santa Cruz)
T1 sequence (Q9WV60 whole entry): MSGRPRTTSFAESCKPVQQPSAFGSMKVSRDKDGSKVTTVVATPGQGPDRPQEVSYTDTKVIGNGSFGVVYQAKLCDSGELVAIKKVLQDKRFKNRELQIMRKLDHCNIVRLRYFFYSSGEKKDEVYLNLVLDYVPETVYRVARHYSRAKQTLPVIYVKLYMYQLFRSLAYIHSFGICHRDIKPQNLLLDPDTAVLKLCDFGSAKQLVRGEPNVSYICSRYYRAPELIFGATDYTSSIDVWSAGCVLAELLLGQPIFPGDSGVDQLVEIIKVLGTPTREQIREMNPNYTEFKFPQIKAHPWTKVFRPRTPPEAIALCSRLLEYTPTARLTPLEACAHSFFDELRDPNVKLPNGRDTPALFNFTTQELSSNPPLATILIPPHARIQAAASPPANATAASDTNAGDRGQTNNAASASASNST
Protocol: The immunoprecipitation was performed as previously described (Garrido et al, 2002). Briefly, the hippocampus of two month-old wild-type mice were lysed in immunoprecipitation buffer (25 mM HEPES pH 7.4, 125 mMNaCl, 25 mMNaF, 1 mM EDTA, 1 mM EGTA, 1% NP-40) including phosphatase inhibitors (1 mM NaVO3 and 200 nM okadaic acid) and the protease inhibitor cocktail described above. 200 μg of total proteins from lysate were precleared by using protein G-Sepharose beads (Santa Cruz Biotechnology) for 1 h at 4° C. and then were incubated with anti-GSK-3β antibody (Santa Cruz Biotechnology) and new protein G beads for 4 h at 4° C. The immunocomplexes were finally pelleted and washed three times with cold immunoprecipitation buffer.
IC50 of ANDRO was determined by a luminometric GSK-3β activity assay. […] Briefly, ANDRO was tested at different concentrations and diluted in kinase buffer containing final concentrations of: 40 mM Tris pH 7.5; 20 mM MgCl2; 0.1 mg/ml BSA. […] The enzymatic reaction was stopped after 10 min of incubation to room temperature by adding 50 μl Kinase Glo (Promega, Madison, USA). The luminometric signal was allowed to stabilize for 10 min and the measured with a Luminometer TURNER DESIGNS model TD-2020.

[4] = system: APPswe/PS-1 double transgenic mice; test: Tau phosphorylation (PHF-1, AT8) by immunoblot and immunohistochemistry in treated mice; type: in vivo
[5] = system: CA3-CA1 connections in hippocampal slices; test: Electrophysiology (fEPSP, PPF, LTP, LTD) in Wt hippocampal slices; type: cell-based, mice
Protocol: Slices were transferred to an experimental chamber (2 ml), superfused (3 ml/min, at 20-22° C.) with gassed ACSF and visualized by trans-illumination with a binocular microscope (MSZ-10, Nikon, Melville, N.Y.). […] The stimulation was in the Stratum Radiatum within 100-200 μm from the recording site. The paired pulse facilitation index was calculated by ((R2−R1)/R1), where R1 and R2 were the peak amplitudes of the first and second fEPSP respectively. To generate LTP we used Theta Burst Stimulation (TBS) consisting of 5 trains of stimulus with an inter-train interval of 20 s. Each train consisted of 10 bursts at 5 Hz and each burst having 4 pulses at 100 Hz. To generate LTD we used Low Frequency Stimulation (LFS) consisting in 900 paired pulses at 1 Hz. Recordings were filtered at 2.0-3.0 kHz, sampled at 4.0 kHz using an A/D converter, and stored with pClamp 10 (Molecular Devices). Evoked postsynaptic responses were analyzed off-line, using an analysis software (pClampfit, Molecular Devices), which allowed visual detection of events, computing only those events that exceeded and arbitrary threshold.

[6] = system: APPswe/PS-1 double transgenic mice; test: Memory flexibility test (modified Morris Water Maze); type: in vivo; conditions: 7-month-old APPswe/PS-1 mice, 2.0 mg/kg IP three times per week, four weeks, vs Tg control
[7] = system: APPswe/PS-1 double transgenic mice; test: Slot blot of Aβ oligomers (A11 antibody) in hippocampus of treated mice; type: in vivo

C=C1CC[C@@H]2C(C)(CO)C(O)CC[C@@]2(C)C1C/C=C1/C(=O)OCC1O (stereo in doubt) [ANDRO, 3-(2-(Decahydro-6-hydroxy-5-(hydroxymethyl)-5,8a-dimethyl-2-methylenenaphthyl)ethylidene)dihydro-4-hydroxyfuran-2(3H)-one]
escape latency [1]: significantly lower escape latency values
Cdh-1 gene expression [2]: differential expression induced by ANDRO
number of Wnt target genes specifically modulated ([2]; 9 h, of the 86 genes analyzed): 3 genes
number of modulated Wnt target genes shared by both treatments ([2]; 9 h, of the 86 genes analyzed): 4
Ets2 gene expression ([2]; after Bonferroni correction): down-regulation of Ets2 gene
IC50 ([3]; 25 μM pGS-2 peptide substrate, 10 μM ATP, preincubation 10 min, read-out: inhibition constant (IC50) of GSK-3β activity): 5.58 µM
GSK-3β inhibition in the presence of DTT ([3]; 0.5 mM DTT): neither prevents the inhibition generated by ANDRO
IC50 ([3]; different concentrations of ATP, read-out: IC50 using different concentrations of ATP): ~5.58 µM
IC50 at increased substrate concentration ([3]; different concentrations of the substrate): increase in the IC50 of ANDRO
number of AT8-positive neurons next to amyloid deposits ([4]; 6 month-old APPswe/PS-1, circular area surrounding plaques): clear decrease in the number of AT8-positive neurons next to amyloid deposits
total AT8-positive cells outside the circular area around the plaques ([4]; hippocampus): decrease in the number of these cells
PHF-1- and AT8-positive tau levels (immunoblot) ([4]; hippocampus of 6 month-old APPswe/PS-1 mice, vs untreated): reduction in PHF-1- and AT8-positive tau levels
fEPSP amplitude (basal synaptic transmission) ([5]; ANDRO (5 μM), slices exposed for 30 min): increased the fEPSP amplitude
paired pulse facilitation (PPF) ratio ([5]; Wt hippocampal slices): does not increase PPF ratio
LTP induction or maintenance ([5]; Wt hippocampal slices, TBS, in the presence of ANDRO): do not observed alteration in the LTP induction or maintenance
induction of LTD ([5]; hippocampal slices, LFS): the LTD was inhibited
number of trial to criterion of learning [6]: reduction in the number of trial to criterion of learning
level of Aβ oligomers (A11 slot-blot) ([7]; 7 month-old APPswe/PS-1 mice): did not show significant changes
levels of Aβ-oligomers (A11 slot blot) ([7]; FIG. 3G mice (legend: old APPswe/PS-1)): did not show significant changes
